As usually defined, the IC50 is the point on the concentration scale where inhibition reaches its midpoint. Higher therefore signals a need for much substance.

A value given as a limit tells only on which side of the number the result lay.

This is an account of results in the Kinase Knowledgebase extract (Sharma et al. 2016).

The target of one assay is PIK3CG (human) (UniProt P48736). As to the kind of experiment: Assessment of PIK3CG Kinase Activity.
The next assay addresses PIK3CD (Human) (UniProt O00329). The assay is described as follows: Assessment of PIK3CD Kinase Activity.
The target in a further assay is PIK3CA (human) (UniProt P42336). The assay is described as follows: Assessment of PIK3CA Kinase Activity.
Sequence of PIK3CA (human) (P42336 whole entry, looked up): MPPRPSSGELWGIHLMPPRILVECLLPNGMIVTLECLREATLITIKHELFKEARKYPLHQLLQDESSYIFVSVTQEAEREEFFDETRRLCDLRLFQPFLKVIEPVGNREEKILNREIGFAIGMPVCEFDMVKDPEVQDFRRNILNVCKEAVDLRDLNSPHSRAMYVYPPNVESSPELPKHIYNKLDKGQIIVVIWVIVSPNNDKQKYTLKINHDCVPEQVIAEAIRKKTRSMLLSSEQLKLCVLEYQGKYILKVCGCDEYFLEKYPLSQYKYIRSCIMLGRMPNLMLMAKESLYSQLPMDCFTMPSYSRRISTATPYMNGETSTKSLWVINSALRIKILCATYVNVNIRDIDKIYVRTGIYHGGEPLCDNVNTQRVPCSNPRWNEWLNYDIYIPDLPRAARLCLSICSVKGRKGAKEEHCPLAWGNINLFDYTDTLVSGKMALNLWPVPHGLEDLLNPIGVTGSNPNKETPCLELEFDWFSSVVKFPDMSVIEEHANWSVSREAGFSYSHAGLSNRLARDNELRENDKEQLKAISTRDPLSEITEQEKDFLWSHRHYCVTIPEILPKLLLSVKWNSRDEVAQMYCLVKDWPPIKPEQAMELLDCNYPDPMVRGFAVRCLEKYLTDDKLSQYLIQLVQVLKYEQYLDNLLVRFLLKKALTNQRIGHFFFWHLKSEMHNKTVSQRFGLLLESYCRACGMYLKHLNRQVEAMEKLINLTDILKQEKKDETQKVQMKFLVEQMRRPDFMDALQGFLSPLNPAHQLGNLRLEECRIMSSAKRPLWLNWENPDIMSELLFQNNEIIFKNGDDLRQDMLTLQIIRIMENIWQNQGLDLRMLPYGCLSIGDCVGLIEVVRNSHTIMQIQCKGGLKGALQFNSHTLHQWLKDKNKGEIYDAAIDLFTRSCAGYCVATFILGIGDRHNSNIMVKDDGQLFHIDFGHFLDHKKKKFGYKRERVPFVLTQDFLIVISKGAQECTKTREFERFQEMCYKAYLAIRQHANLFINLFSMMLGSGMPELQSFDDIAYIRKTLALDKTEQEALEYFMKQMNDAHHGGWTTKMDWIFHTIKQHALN
The target of the next assay is PIK3CB (Human) (UniProt P42338). As to the kind of experiment: Assessment of PIK3CB Kinase Activity.
Sequence of PIK3CB (Human) (P42338 whole entry, looked up): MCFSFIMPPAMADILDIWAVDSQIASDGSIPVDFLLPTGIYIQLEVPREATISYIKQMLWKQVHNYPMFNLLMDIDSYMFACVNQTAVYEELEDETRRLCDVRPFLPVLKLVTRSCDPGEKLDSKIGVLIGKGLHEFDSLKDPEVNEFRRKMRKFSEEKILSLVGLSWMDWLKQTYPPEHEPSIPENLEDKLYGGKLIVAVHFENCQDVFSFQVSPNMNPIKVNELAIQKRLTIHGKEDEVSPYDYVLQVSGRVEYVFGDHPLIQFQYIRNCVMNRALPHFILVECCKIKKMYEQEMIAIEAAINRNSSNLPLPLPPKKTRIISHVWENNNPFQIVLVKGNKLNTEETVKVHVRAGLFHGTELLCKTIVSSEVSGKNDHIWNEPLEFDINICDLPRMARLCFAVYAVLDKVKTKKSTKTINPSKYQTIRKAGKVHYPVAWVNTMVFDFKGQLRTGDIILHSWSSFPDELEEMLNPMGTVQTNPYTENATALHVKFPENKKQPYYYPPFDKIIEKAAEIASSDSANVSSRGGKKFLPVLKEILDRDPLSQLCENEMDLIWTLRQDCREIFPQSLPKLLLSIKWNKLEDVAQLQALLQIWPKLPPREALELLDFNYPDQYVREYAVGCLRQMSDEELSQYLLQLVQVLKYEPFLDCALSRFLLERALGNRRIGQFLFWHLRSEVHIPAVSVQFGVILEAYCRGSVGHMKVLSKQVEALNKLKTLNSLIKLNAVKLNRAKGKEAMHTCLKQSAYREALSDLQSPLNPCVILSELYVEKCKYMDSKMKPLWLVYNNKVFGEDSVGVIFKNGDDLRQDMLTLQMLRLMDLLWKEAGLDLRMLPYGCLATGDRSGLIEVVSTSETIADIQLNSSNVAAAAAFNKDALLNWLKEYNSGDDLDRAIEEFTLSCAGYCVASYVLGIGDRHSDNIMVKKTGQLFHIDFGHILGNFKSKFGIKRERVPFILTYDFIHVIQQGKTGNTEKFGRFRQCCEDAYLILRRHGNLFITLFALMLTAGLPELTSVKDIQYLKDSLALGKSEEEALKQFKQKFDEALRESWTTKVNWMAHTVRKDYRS

Sequence of PIK3CD (Human) (O00329 whole entry, looked up): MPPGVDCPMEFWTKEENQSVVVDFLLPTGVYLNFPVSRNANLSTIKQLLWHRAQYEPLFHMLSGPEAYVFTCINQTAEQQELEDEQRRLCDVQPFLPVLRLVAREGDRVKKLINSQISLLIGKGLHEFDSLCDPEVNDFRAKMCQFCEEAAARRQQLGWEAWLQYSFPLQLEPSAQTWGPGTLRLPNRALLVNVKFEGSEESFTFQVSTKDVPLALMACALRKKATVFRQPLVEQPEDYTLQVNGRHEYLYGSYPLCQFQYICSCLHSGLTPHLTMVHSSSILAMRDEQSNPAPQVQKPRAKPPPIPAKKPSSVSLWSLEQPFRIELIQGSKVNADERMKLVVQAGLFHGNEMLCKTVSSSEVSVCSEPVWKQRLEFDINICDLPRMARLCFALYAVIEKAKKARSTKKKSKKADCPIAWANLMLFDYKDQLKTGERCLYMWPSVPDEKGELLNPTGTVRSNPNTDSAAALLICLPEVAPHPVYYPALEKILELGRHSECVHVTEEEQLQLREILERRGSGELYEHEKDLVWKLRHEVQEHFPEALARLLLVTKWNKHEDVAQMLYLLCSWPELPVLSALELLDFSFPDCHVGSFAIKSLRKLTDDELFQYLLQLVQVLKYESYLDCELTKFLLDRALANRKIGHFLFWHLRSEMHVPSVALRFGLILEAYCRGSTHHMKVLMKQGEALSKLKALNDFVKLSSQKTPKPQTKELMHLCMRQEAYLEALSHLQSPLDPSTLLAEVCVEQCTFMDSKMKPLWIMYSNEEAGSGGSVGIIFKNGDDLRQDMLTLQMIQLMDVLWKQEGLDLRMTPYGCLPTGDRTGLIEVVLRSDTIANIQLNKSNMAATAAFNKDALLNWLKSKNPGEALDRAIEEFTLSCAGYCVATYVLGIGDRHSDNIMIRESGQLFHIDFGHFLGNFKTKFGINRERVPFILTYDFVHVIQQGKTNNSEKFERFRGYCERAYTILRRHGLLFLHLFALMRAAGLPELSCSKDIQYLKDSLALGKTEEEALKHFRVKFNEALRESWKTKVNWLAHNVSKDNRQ
Sequence of PIK3CG (human) (P48736 whole entry, looked up): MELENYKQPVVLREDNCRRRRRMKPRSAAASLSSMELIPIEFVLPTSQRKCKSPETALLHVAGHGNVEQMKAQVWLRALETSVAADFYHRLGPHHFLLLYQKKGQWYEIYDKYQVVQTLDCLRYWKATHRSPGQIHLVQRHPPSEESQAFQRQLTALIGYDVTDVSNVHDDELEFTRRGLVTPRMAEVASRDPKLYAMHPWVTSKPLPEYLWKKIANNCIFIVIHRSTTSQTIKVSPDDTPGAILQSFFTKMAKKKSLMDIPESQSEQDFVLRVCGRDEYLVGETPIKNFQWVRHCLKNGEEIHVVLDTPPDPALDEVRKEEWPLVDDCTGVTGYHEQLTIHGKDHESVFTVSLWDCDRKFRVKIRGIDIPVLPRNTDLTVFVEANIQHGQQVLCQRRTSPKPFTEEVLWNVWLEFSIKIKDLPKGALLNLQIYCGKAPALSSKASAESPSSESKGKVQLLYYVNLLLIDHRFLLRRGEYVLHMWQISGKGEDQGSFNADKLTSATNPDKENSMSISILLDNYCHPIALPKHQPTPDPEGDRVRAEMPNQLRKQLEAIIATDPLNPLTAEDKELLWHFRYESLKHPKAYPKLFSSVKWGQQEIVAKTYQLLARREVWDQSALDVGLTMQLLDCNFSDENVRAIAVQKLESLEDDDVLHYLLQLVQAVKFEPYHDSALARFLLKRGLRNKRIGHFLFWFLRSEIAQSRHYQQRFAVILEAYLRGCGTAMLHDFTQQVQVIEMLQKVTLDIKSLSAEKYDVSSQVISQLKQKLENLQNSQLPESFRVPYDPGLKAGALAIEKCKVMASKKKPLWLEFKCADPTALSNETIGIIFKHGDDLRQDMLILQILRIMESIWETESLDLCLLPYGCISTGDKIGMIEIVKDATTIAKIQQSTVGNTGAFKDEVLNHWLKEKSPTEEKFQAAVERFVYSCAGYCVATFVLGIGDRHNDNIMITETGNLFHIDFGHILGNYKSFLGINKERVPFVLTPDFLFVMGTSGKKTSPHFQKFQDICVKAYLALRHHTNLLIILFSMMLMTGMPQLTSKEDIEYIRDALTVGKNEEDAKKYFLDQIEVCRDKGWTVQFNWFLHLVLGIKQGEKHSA

Consider `C[C@H](Nc1ncnc2ccnn12)c1cc2cccc(C(F)(F)F)c2c(=O)n1-c1ccccc1`, for which the concentration for half-maximal inhibition (IC50) at PIK3CG (human) was below 0.1 µM; against PIK3CD (Human) it was below 0.1 µM; against PIK3CA (human) it was above 10 µM.
As for `Cc1nc2c(N[C@@H](C)c3cc4cccc(C(F)(F)F)c4c(=O)n3-c3ccccc3)ncnc2s1`, the IC50 at PIK3CD (Human), on PIK3CB (Human) and on PIK3CA (human) was above 10 µM in each case.
In the case of `C[C@H](Nc1cc(Cl)nn2ccnc12)c1cc2cccc(C(F)(F)F)c2c(=O)n1-c1cccc(F)c1`, the IC50 on PIK3CD (Human) was 0.1 to 1 µM; on PIK3CB (Human), above 10 µM; on PIK3CA (human), above 10 µM.
In the case of `COc1ccc(CNc2nc(N[C@@H](C)c3cc4cccc(-c5cnc(OC)nc5)c4c(=O)n3-c3ccccc3)c3ncccc3n2)cc1`, the IC50 is 0.1 to 1 µM against PIK3CG (human), 0.1 to 1 µM on PIK3CD (Human) and above 10 µM at PIK3CA (human).
In the case of `C[C@H](Nc1ncnc2ccnn12)c1cc2cccc(Cl)c2c(=O)n1-c1cccc(F)c1`, the IC50 was 0.1 to 1 µM on PIK3CG (human), below 0.1 µM at PIK3CD (Human) and above 10 µM against PIK3CA (human).
The like results for `Cc1ncc(-c2cccc3cc([C@H](C)Nc4nc(N)nc5cccnc45)n(-c4ccccc4)c(=O)c23)s1` were, in that order, below 0.1 µM, below 0.1 µM and 0.1 to 1 µM.
On to `Cc1cc(-c2cccc3nc([C@H](C)Nc4nc(N)nc5cccnc45)n(-c4ccccc4)c(=O)c23)ccn1`, for which the results for the IC50 against PIK3CG (human), on PIK3CD (Human) and against PIK3CA (human) were below 0.1 µM, below 0.1 µM and 0.1 to 1 µM, respectively.
`C[C@H](Nc1cc(O)nc2cccnc12)c1cc2cccc(Cl)c2c(=O)n1-c1ccccc1`: the 50% inhibitory concentration (IC50) on PIK3CB (Human) and against PIK3CA (human) was above 10 µM throughout.
Regarding `C[C@H](Nc1cc(Cl)nn2ccnc12)c1cc2cccc(-c3cnn(C)c3)c2c(=O)n1C1CC1`, the IC50 against PIK3CB (Human) and on PIK3CA (human) was above 10 µM each time.
`C[C@H](Nc1nc(Cl)nc2scnc12)c1cc2cccc(C(F)(F)F)c2c(=O)n1-c1ccccc1`: the IC50 is below 0.1 µM on PIK3CG (human), below 0.1 µM on PIK3CD (Human) and above 10 µM against PIK3CA (human).
Regarding `C[C@H](Nc1ncnc2ccnn12)C1=Cc2cccc(Cl)c2C(C(=O)N2CCOCC2)N1` (stereo not given in full), the IC50 against PIK3CD (Human) is 0.1 to 1 µM; against PIK3CA (human), above 10 µM.
In the case of `C[C@H](Nc1ncnc2[nH]cnc12)c1cc2scc(C(F)(F)F)c2c(=O)n1-c1ccccc1`, the 50% inhibitory concentration (IC50) against PIK3CD (Human), on PIK3CB (Human) and against PIK3CA (human) was 0.1 to 1 µM each time.
On to `C[C@H](Nc1nc(N)ncc1C(F)(F)F)c1cc2cccc(C(F)(F)F)c2c(=O)n1-c1ccccc1`, for which the IC50 against PIK3CG (human) is below 0.1 µM; at PIK3CD (Human) it was below 0.1 µM; against PIK3CA (human) it was above 10 µM.
`Cc1cn2nccc(N[C@@H](C)c3cc4cccc(Cl)c4c(=O)n3-c3cccc(F)c3)c2n1`: the IC50 at PIK3CB (Human) and against PIK3CA (human) was above 10 µM throughout.
With `C[C@H](Nc1nc(Cl)nc2nccnc12)c1cc2cccc(Cl)c2c(=O)n1-c1ccccc1`, the IC50 on PIK3CB (Human) and on PIK3CA (human) was above 10 µM throughout.
Consider `Cc1cn2nccc(N[C@@H](C)c3cc4cccc(-c5cnn(C)c5)c4c(=O)n3-c3ccccc3)c2n1`, for which the IC50 on PIK3CB (Human) and against PIK3CA (human) was above 10 µM throughout.
For `Cc1nsc2cc(C(C)Nc3ncnc4cccnc34)n(-c3ccccc3)c(=O)c12` (stereo not given), the IC50 was 0.1 to 1 µM against PIK3CD (Human), above 10 µM against PIK3CB (Human) and above 10 µM against PIK3CA (human).
Turning to `Cc1cc(-c2cccc3cc([C@H](C)Nc4ncnc5cccnc45)n(-c4ccccc4)c(=O)c23)ccn1`, the results for the IC50 at PIK3CG (human), against PIK3CD (Human) and at PIK3CA (human) were below 0.1 µM, below 0.1 µM and 0.1 to 1 µM, respectively.
Take `C[C@H](Nc1cc(N)nc2ccnn12)c1cc2cccc(Cl)c2c(=O)n1-c1ccccc1`: the results for the IC50 at PIK3CG (human), at PIK3CD (Human) and at PIK3CA (human) were below 0.1 µM, below 0.1 µM and above 10 µM, respectively.
As for `C[C@H](Nc1ncnc2cccnc12)c1cc2cccc(-c3cnn(C)c3)c2c(=O)n1C`, the IC50 against PIK3CB (Human) and against PIK3CA (human) was above 10 µM each time.
Consider `C[C@H](Nc1nc(N)nc2nccnc12)c1cc2cccc(Cl)c2c(=O)n1-c1ccccc1`, for which the IC50 was below 0.1 µM at PIK3CG (human), 0.1 to 1 µM on PIK3CD (Human) and above 10 µM on PIK3CA (human).
The matching figures for `C[C@H](Nc1nc(N)nc2cccnc12)c1cc2cccc(-c3cnc4ccccc4c3)c2c(=O)n1-c1ccccc1`: below 0.1 µM, below 0.1 µM and 0.1 to 1 µM.
Turning to `C[C@H](Nc1ncnc2cccnc12)c1cc2scc(C(F)(F)F)c2c(=O)n1-c1ccccc1`, the IC50 at PIK3CD (Human) is below 0.1 µM; on PIK3CB (Human) it was above 10 µM; against PIK3CA (human), above 10 µM.
Consider `C[C@H](Nc1ccnc2ccnn12)c1cc2cccc(C(F)(F)F)c2c(=O)n1-c1cccc(F)c1`, for which the IC50 against PIK3CG (human) is below 0.1 µM; against PIK3CD (Human), below 0.1 µM; on PIK3CA (human) it was above 10 µM.
For `C[C@H](Nc1c(C#N)cnc2cccnc12)c1cc2cccc(Cl)c2c(=O)n1-c1ccccc1`, the half-inhibitory concentration (IC50) at PIK3CD (Human), against PIK3CB (Human) and at PIK3CA (human) was above 10 µM each time.
In the case of `C[C@H](Nc1ncnc(N)n1)c1cc2cccc(Cl)c2c(=O)n1-c1cccc(F)c1`, the IC50 was 0.1 to 1 µM against PIK3CD (Human), above 10 µM at PIK3CB (Human) and above 10 µM against PIK3CA (human).
As to `C[C@H](Nc1ncnc2[nH]nc(C#N)c12)c1cc2cccc(Cl)c2c(=O)n1-c1ccccc1`, the IC50 was below 0.1 µM against PIK3CG (human), below 0.1 µM against PIK3CD (Human) and above 10 µM against PIK3CA (human).
With `Cc1cc(-c2cccc3cc([C@H](C)Nc4nc(N)nc5cccnc45)n(-c4ccccc4)c(=O)c23)ccn1`, the IC50 against PIK3CG (human) is below 0.1 µM; on PIK3CD (Human), below 0.1 µM; on PIK3CA (human), 0.1 to 1 µM.
With `Cc1cn2nccc(N[C@@H](C)c3cc4cccc(Cl)c4c(=O)n3-c3ccccc3)c2n1`, the IC50 at PIK3CB (Human) and against PIK3CA (human) was above 10 µM each time.
For `C[C@H](Nc1nc(N)ncc1C(F)(F)F)c1cc2cccc(C(F)(F)F)c2c(=O)n1-c1cccc(F)c1`, the IC50 at PIK3CG (human) was below 0.1 µM; against PIK3CD (Human), below 0.1 µM; against PIK3CA (human) it was above 10 µM.
For the compound `Cc1cn2nccc(N[C@@H](C)c3cc4cccc(C(F)(F)F)c4c(=O)n3-c3ccccc3)c2n1`, the IC50 on PIK3CD (Human), at PIK3CB (Human) and on PIK3CA (human) was above 10 µM throughout.
Consider `Cc1ccnc2cc(C(C)Nc3ncnc4cccnc34)n(-c3ccccc3)c(=O)c12` (stereo not given), for which the IC50 at PIK3CG (human) is 0.1 to 1 µM; against PIK3CD (Human) it was below 0.1 µM; on PIK3CA (human), above 10 µM.
As to `C[C@H](Nc1nc(N)ncc1C#N)c1cc2cccc(C(F)(F)F)c2c(=O)n1-c1ccccc1`, the IC50 on PIK3CG (human) was below 0.1 µM; against PIK3CD (Human) it was below 0.1 µM; on PIK3CB (Human), 0.1 to 1 µM.
With `Cc1cc(-c2cccc3cc([C@H](C)Nc4ncnc5cccnc45)n(-c4ccccc4)c(=O)c23)cnc1C`, the IC50 at PIK3CG (human) was 0.1 to 1 µM; against PIK3CD (Human), below 0.1 µM; against PIK3CB (Human) it was above 10 µM.
For `C[C@H](Nc1ccnn2ccnc12)c1cc2cccc(Cl)c2c(=O)n1CCN1CCCC1`, the IC50 against PIK3CG (human) and against PIK3CA (human) was above 10 µM throughout.
Consider `C[C@H](Nc1c(C#N)cnc2cccnc12)c1cc2cccc(C(F)(F)F)c2c(=O)n1-c1ccccc1`, for which the IC50 on PIK3CD (Human), against PIK3CB (Human) and at PIK3CA (human) was above 10 µM each time.
For the compound `C[C@H](Nc1nc(N)nc2cccnc12)c1cc2cccc(-c3cnn(C)c3)c2c(=O)n1C1CC1`, the values for the IC50 at PIK3CG (human), against PIK3CD (Human) and at PIK3CA (human) were below 0.1 µM, below 0.1 µM and 0.1 to 1 µM, respectively.
On to `C[C@H](Nc1ccnc2ccnn12)c1cc2cccc(Cl)c2c(=O)n1CCN1CCCC1`, for which the IC50 on PIK3CG (human) and at PIK3CA (human) was above 10 µM each time.
For the compound `C[C@H](Nc1ncnc2ccnn12)c1cc2cccc(Cl)c2c(=O)n1-c1ccccc1`, the figures for the concentration for half-maximal inhibition (IC50) on PIK3CG (human), against PIK3CD (Human) and at PIK3CB (Human) were below 0.1 µM, below 0.1 µM and 0.1 to 1 µM, respectively.
As for `C[C@H](Nc1c(C#N)cnc2cccnc12)c1cc2cccc(-c3cnn(C)c3)c2c(=O)n1-c1ccccc1`, the IC50 on PIK3CD (Human), on PIK3CB (Human) and against PIK3CA (human) was above 10 µM in each case.
Regarding `Cc1cccc2cc([C@H](C)Nc3nc(N)nc4cccnc34)n(-c3cccc(F)c3)c(=O)c12`, the IC50 is below 0.1 µM on PIK3CG (human), below 0.1 µM on PIK3CD (Human) and 0.1 to 1 µM on PIK3CA (human).
As to `COc1cncc(-c2cccc3cc([C@H](C)Nc4nc(N)nc5cccnc45)n(-c4ccccc4)c(=O)c23)c1`, the IC50 against PIK3CG (human) is below 0.1 µM; at PIK3CD (Human), below 0.1 µM; against PIK3CA (human), 0.1 to 1 µM.
`COc1ccc(-c2cccc3cc([C@H](C)Nc4ncnc5cccnc45)n(-c4ccccc4)c(=O)c23)cn1`: the IC50 on PIK3CG (human) is below 0.1 µM; at PIK3CD (Human), below 0.1 µM; at PIK3CB (Human) it was above 10 µM.
Turning to `C[C@H](Nc1ncnc2cccnc12)c1cc2cccc(-c3cnc(N)nc3)c2c(=O)n1-c1ccccc1`, the figures for the IC50 on PIK3CG (human), on PIK3CD (Human) and against PIK3CA (human) were below 0.1 µM, below 0.1 µM and 0.1 to 1 µM, respectively.
For `C[C@H](Nc1c(C#N)cnc2cccnc12)c1cc2cccc(Cl)c2c(=O)n1-c1cccc(F)c1`, the IC50 at PIK3CD (Human), on PIK3CB (Human) and at PIK3CA (human) was above 10 µM each time.
As to `Cc1cncc(-c2cccc3cc([C@H](C)Nc4nc(N)nc5cccnc45)n(-c4ccccc4)c(=O)c23)c1`, the IC50 is below 0.1 µM on PIK3CG (human), below 0.1 µM against PIK3CD (Human) and 0.1 to 1 µM against PIK3CA (human).
For the compound `C[C@H](Nc1ccnc2scnc12)c1cc2cccc(C(F)(F)F)c2c(=O)n1-c1ccccc1`, the IC50 against PIK3CG (human) is below 0.1 µM; against PIK3CD (Human) it was below 0.1 µM; against PIK3CB (Human) it was 0.1 to 1 µM.
For `C[C@H](Nc1ccnc2cccnc12)c1cc2cccc(C(F)(F)F)c2c(=O)n1-c1ccccc1`, the IC50 against PIK3CG (human) was below 0.1 µM; on PIK3CD (Human), below 0.1 µM; against PIK3CA (human), above 10 µM.
As to `C[C@H](Nc1nc(N)nc2cccnc12)c1cc2cccc(-c3cnn(C)c3)c2c(=O)n1-c1cccc(F)c1`, the IC50 at PIK3CG (human) was below 0.1 µM; on PIK3CD (Human) it was below 0.1 µM; against PIK3CB (Human) it was above 10 µM.
As for `COc1nc(N[C@@H](C)c2cc3cccc(C(F)(F)F)c3c(=O)n2-c2cccc(F)c2)c2ncccc2n1`, the IC50 against PIK3CD (Human), on PIK3CB (Human) and on PIK3CA (human) was above 10 µM each time.
